Experimental data from patent publication US8541461B2 (Astex Therapeutics Limited, priority 2005, dated 2013).
Like-named read-outs stand apart in the source and are kept apart here.

Legend:
[1] = target: T1, PKA catalytic domain (Homo sapiens, UniProt P17612); experiment: Measurement of PKA kinase inhibitory activity (IC50); assay type: biochemical
T1 construct: PKA catalytic domain from Upstate Biotechnology (#14-440); purchased Upstate Biotechnology 14-440
Procedure: A final concentration of 1 nM enzyme is used in a buffer that includes 20 mM MOPS pH 7.2, 40 μM ATP/γ^33P-ATP and 5 μM substrate. […] The reaction is allowed to proceed for 20 minutes before addition of excess orthophosphoric acid to quench activity. Unincorporated γ^33P-ATP is then separated from phosphorylated proteins on a Millipore MAPH filter plate. The plates are washed, scintillant is added and the plates are then subjected to counting on a Packard Topcount.

[2] = target: T2, PKB-PIF fusion protein (protein kinase B) (Homo sapiens, UniProt P31751); experiment: Measurement of PKB kinase inhibitory activity (IC50); assay type: biochemical
T2 construct: PIF (fusion partner); made in house
T2 sequence (P31751 with tags, fused parts or gaps limits assumed): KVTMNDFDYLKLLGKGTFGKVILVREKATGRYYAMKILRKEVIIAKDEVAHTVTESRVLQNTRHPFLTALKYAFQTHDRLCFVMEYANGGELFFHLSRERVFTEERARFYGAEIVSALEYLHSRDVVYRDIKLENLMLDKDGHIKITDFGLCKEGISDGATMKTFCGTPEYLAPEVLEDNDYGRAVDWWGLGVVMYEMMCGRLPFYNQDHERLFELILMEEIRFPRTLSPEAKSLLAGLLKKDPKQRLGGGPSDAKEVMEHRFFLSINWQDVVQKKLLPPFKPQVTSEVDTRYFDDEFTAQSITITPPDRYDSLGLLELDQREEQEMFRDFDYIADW
Procedure: The reaction is allowed to proceed for 20 minutes before addition of excess orthophosphoric acid to quench activity. The reaction mixture is transferred to a phosphocellulose filter plate where the peptide binds and the unused ATP is washed away. After washing, scintillant is added and the incorporated activity measured by scintillation counting.

[3] = doses 10 times more than were needed for antitumour activity; cited from earlier work
[4] = test system: P-glycoprotein-overexpressing subline of leukemic cell line CCRF-CEM; settings: read-out: IC50 against P-glycoprotein-overexpressing subline; cited from earlier work
[5] = test system: Acute Promyelocytic Leukemia (APL) patients; settings: cited from earlier work
[6] = clinical studies; cited from earlier work
[7] = antitumour agent; cited from earlier work
[8] = 1 nM enzyme, 40 μM ATP/γ33P-ATP, 5 μM substrate, read-out: PKA IC50
[9] = 0.6 nM enzyme, 30 μM ATP/γ33P-ATP, 25 μM AKTide-2T substrate, read-out: PKB IC50

Row | Compound | IC50 [1, 8] [nM] | IC50 [2, 9] [nM] | further results
1 | CNCC(C)(c1ccc(Cl)cc1)c1ccc(-c2cn[nH]c2)cc1 (stereo not drawn) [Example 82, {2-(4-Chloro-phenyl)-2-[4-(1H-pyrazol-4-yl)-phenyl]-propyl}-methyl-amine] | < 1000 | < 1000 | 
2 | OCCNCC(c1ccc(Cl)cc1)c1ccc(-c2cn[nH]c2)cc1 (stereo not drawn) [Example 73, 2-{2-(4-Chloro-phenyl)-2-[4-(1H-pyrazol-4-yl)-phenyl]-ethylamino}-ethanol] | < 1000 | < 1000 | 
3 | Cc1n[nH]cc1-c1ccc(C2(c3ccc(Cl)cc3)CCNCC2)cc1 [Example 78, 4-(4-Chloro-phenyl)-4-[4-(3-methyl-1H-pyrazol-4-yl)-phenyl]-piperidine] | < 1000 | < 1000 | 
4 | CCNCC(c1ccc(Cl)cc1)c1ccc(-c2cn[nH]c2)cc1 (stereo not drawn) [Example 43, {2-(4-Chloro-phenyl)-2-[4-(1H-pyrazol-4-yl)-phenyl]-ethyl}-ethyl-amine] | < 1000 | < 1000 | 
5 | CNCCC(c1ccc(-c2cn[nH]c2)cc1)c1ccc2ccccc2c1 (stereo not drawn) [Example 52, Methyl-{3-naphthalen-2-yl-3-[4-(1H-pyrazol-4-yl)-phenyl]-propyl}-amine] | < 1000 | < 1000 | 
6 | COCCOc1ccc(C2(c3ccc(-c4cn[nH]c4)cc3)CCNCC2)cc1 [Example 67, 4-[4-(2-Methoxy-ethoxy)-phenyl]-4-[4-(1H-pyrazol-4-yl)-phenyl]-piperidine] | < 1000 | < 5000 | 
7 | Clc1ccc(C2(c3ccc(-c4cn[nH]c4)cc3)CCNCC2)cc1Cl [Example 85, 4-(3,4-Dichloro-phenyl)-4-[4-(1H-pyrazol-4-yl)-phenyl]-piperidine] | < 1000 | < 1000 | 
8 | CCOC(=O)c1ccc2[nH]c3c(OC)c4[nH]c5ccc(C(=O)OCC)cc5c4cc3c2c1 [SR-13668] |  |  | adverse effects in mice [3]: no adverse effects
9 | CNCCC(Oc1cccc(Cl)c1)c1ccc(-c2cn[nH]c2)cc1 (stereo not drawn) [Example 59, {3-(3-Chloro-phenoxy)-3-[4-(1H-pyrazol-4-yl)-phenyl]-propyl}-methyl-amine] | < 1000 | < 1000 | 
10 | NCCOC(c1ccc(Cl)cc1)c1ccc(-c2cn[nH]c2)cc1 (stereo not drawn) [Example 49, 2-{(4-Chloro-phenyl)-[4-(1H-pyrazol-4-yl)-phenyl]-methoxy}-ethylamine] | < 1000 | < 1000 | 
11 | C/C1=C/C[C@@H](/C(C)=C/c2csc(C)n2)OC(=O)C[C@H](O)C(C)(C)C(=O)[C@H](C)[C@@H](O)[C@@H](C)CCC1 [desoxyepothilone B] |  |  | IC50 [4]: 17 nM
12 | CNCCC(c1ccc(F)cc1)c1ccc(-c2cn[nH]c2)cc1 (stereo not drawn) [Example 54, {3-(4-Fluoro-phenyl)-3-[4-(1H-pyrazol-4-yl)-phenyl]-propyl}-methyl-amine] | < 1000 | < 1000 | 
13 | CNCC(c1ccc(Oc2ccccc2)cc1)c1ccc(-c2cn[nH]c2)cc1 (stereo not drawn) [Example 45, Methyl-{2-(4-phenoxy-phenyl)-2-[4-(1H-pyrazol-4-yl)-phenyl]-ethyl}-amine] | < 1000 | < 5000 | 
14 | CNCC(c1ccc(Oc2cnccn2)cc1)c1ccc(-c2cn[nH]c2)cc1 (stereo not drawn) [Example 47, Methyl-{2-[4-(pyrazin-2-yloxy)-phenyl]-2-[4-(1H-pyrazol-4-yl)-phenyl]-ethyl}-amine] | < 1000 | < 1000 | 
15 | CNCC(O)(c1ccc(Cl)cc1)c1ccc(-c2cn[nH]c2)cc1 (stereo not drawn) [Example 83, 1-(4-Chloro-phenyl)-2-methylamino-1-[4-(1H-pyrazol-4-yl)-phenyl]-ethanol] | < 1000 | < 1000 | 
16 | CNCC(Oc1ccccc1)c1ccc(-c2cn[nH]c2)cc1 (stereo not drawn) [Example 48, Methyl-{2-phenoxy-2-[4-(1H-pyrazol-4-yl)-phenyl]-ethyl}-amine] | < 1000 | < 5000 | 
17 | NCC(Cc1ccccc1)c1ccc(-c2cn[nH]c2)cc1 (stereo not drawn) [Example 7, 3-Phenyl-2-[4-(1H-pyrazol-4-yl)-phenyl]-propylamine] | < 15000 | < 5000 | 
18 | Clc1ccc(C(Cn2ccnc2)c2ccc(-c3cn[nH]c3)cc2)cc1 (stereo not drawn) [Example 44, 4-{4-[1-(4-Chloro-phenyl)-2-imidazol-1-yl-ethyl]-phenyl}-1H-pyrazole] | < 1000 | < 1000 | 
19 | N#Cc1ccc(C2(c3ccc(-c4cn[nH]c4)cc3)CCNCC2)cc1 [Example 81, 4-{4-[4-(1H-Pyrazol-4-yl)-phenyl]-piperidin-4-yl}-benzonitrile] | < 1000 | < 1000 | 
20 | NCC(c1ccccc1)c1ccc(-c2cn[nH]c2)cc1 (stereo not drawn) [Example 1, 2-Phenyl-2-[4-(1H-pyrazol-4-yl)-phenyl]-ethylamine] |  |  | IC50 [1]: < 1000 nM; IC50 [2]: < 1000 nM

Row | Compound | IC50 [1, 8] [nM] | IC50 [2, 9] [nM] | further results
21 | NCC(c1ccc(Cl)cc1)c1ccc(-c2cn[nH]c2)cc1 (stereo not drawn) [Example 4, 2-(4-Chloro-phenyl)-2-[4-(1H-pyrazol-4-yl)-phenyl]-ethylamine] | < 1000 |  | 
22 | NCC(O)(c1ccc(Cl)cc1)c1ccc(-c2cn[nH]c2)cc1 (stereo not drawn) [Example 84, 2-Amino-1-(4-chloro-phenyl)-1-[4-(1H-pyrazol-4-yl)-phenyl]-ethanol] | < 1000 | < 1000 | 
23 | COc1ccc(C2(c3ccc(-c4cn[nH]c4)cc3)CCNCC2)cc1Cl [Example 86, 4-(3-Chloro-4-methoxy-phenyl)-4-[4-(1H-pyrazol-4-yl)-phenyl]-piperidine] | < 1000 | < 1000 | 
24 | CNCC(c1ccc(OC)cc1)c1ccc(-c2cn[nH]c2)cc1 (stereo not drawn) [Example 46, {2-(4-Methoxy-phenyl)-2-[4-(1H-pyrazol-4-yl)-phenyl]-ethyl}-methyl-amine] | < 1000 | < 1000 | 
25 | Clc1ccc(C2(c3ccc(-c4cn[nH]c4)cc3)CNCCO2)cc1 (stereo not drawn) [Example 79, 2-(4-Chloro-phenyl)-2-[4-(1H-pyrazol-4-yl)-phenyl]-morpholine] |  |  | IC50 [1]: < 1000 nM; IC50 [2]: < 1000 nM
26 | CC1=C(/C=C/C(C)=C/C=C/C(C)=C/C(=O)O)C(C)(C)CCC1 [Tretinoin, all-trans retinoic acid] |  |  | remissions in APL patients [5]: 64-100%
27 | CNCC(c1ccc(-c2cn[nH]c2)cc1)c1cccc(Cl)c1 (stereo not drawn) [Example 66, {2-(3-Chloro-phenyl)-2-[4-(1H-pyrazol-4-yl)-phenyl]-ethyl}-methyl-amine] | < 1000 | < 1000 | 
28 | Oc1ccc(C2(c3ccc(-c4cn[nH]c4)cc3)CCNCC2)cc1 [Example 63, 4-{4-[4-(1H-Pyrazol-4-yl)-phenyl]-piperidin-4-yl}-phenol] | < 1000 | < 1000 | 
29 | Cc1n[nH]c(C)c1-c1cccc(CC(N)c2ccccc2)c1 (stereo not drawn) [Example 5, 2-[3-(3,5-Dimethyl-1H-pyrazol-4-yl)-phenyl]-1-phenyl-ethylamine] | < 15000 | < 5000 | 
30 | c1cc(C2(c3ccc(-c4cn[nH]c4)cc3)CCNCC2)ccn1 [Example 89, 4-[4-(1H-Pyrazol-4-yl)-phenyl]-1,2,3,4,5,6-hexahydro-[4,4′]bipyridinyl] |  | < 5000 | 
31 | CNCCC(c1ccc(O)cc1)c1ccc(-c2cn[nH]c2)cc1 (stereo not drawn) [Example 76, 4-{3-Methylamino-1-[4-(1H-pyrazol-4-yl)-phenyl]-propyl}-phenol] |  | < 1000 | 
32 | CCCCCCCCCCCCCCCCCCOP(=O)([O-])OC1CC[N+](C)(C)CC1 [KRX-0401, Perifosine] |  |  | half-life [6]: ~100 h
33 | NC(c1ccc(Cl)cc1)c1ccc(-c2cn[nH]c2)cc1 (stereo not drawn) [Example 104, C-(4-Chloro-phenyl)-C-[4-(1H-pyrazol-4-yl)-phenyl]-methylamine] |  | < 1000 | 
34 | CC(C)NCC(c1ccc(Cl)cc1)c1ccc(-c2cn[nH]c2)cc1 (stereo not drawn) [Example 26, {2-(4-Chloro-phenyl)-2-[4-(1H-pyrazol-4-yl)-phenyl]-ethyl}-isopropyl-amine] |  | < 1000 | 
35 | COc1ccc(C(CCN)c2ccc(-c3cn[nH]c3)cc2)cc1 (stereo not drawn) [Example 77, 3-(4-Methoxy-phenyl)-3-[4-(1H-pyrazol-4-yl)-phenyl]-propylamine] |  | < 1000 | 
36 | NCCC(c1ccc(-c2cn[nH]c2)cc1)c1cccc(Cl)c1 (stereo not drawn) [Example 90, 3-(3-Chloro-phenyl)-3-[4-(1H-pyrazol-4-yl)-phenyl]-propylamine] | < 1000 | < 1000 | 
37 | CN1CCCN(C(c2ccccc2)c2ccc(-c3cn[nH]c3)cc2)CC1 (stereo not drawn) [Example 58, 1-Methyl-4-{phenyl-[4-(1H-pyrazol-4-yl)-phenyl]-methyl}-[1,4]diazepane] |  | < 5000 | 
38 | CNC(=O)C(c1ccc(-c2cn[nH]c2)cc1)c1ccc(-c2cn[nH]c2)cc1 [Example 41, N-Methyl-2,2-bis-[4-(1H-pyrazol-4-yl)-phenyl]-acetamide] |  | < 50000 | 
39 | calicheamicin |  |  | potency relative to adriamycin [7]: over 1,000 times
40 | CN(C)CCC(c1ccc(-c2cn[nH]c2)cc1)c1ccccn1 (stereo not drawn) [Example 19, Dimethyl-{3-[4-(1H-pyrazol-4-yl)-phenyl]-3-pyridin-2-yl-propyl}-amine] |  | < 5000 | 
